In data set [1] the test system is melanocytes. The data set can be described thus: Secreted melanin in cell culture supernatant (Test 3). It counts as cell-based. The settings on record: 72 h, with tunicamycin; % of control; FIG. 3. As for the experimental part:
Cells were treated as indicated for 72 h. After incubation, cell culture supernatant was used for the estimation of secreted melanin. Secreted melanin was measured at 405 nm against cell culture medium as blank. Melanin levels were normalized to the total cellular proteins and represented as % of control.

The test system of data set [2] is B16-F10 melanocytes. Put plainly: MTT cell viability after tunicamycin-induced ER stress (Test 1). It counts as cell-based. The settings on record: pre-treated 6 h, then 300 ng/ml tunicamycin, 72 h; FIG. 1. Here is the method:
B16-F10 melanocytes were seeded (5000 cells per well) in 96-well plates for 24 h. Cells were then treated in quadruplicate with indicated concentration of N-[2-[2-(4-chlorophenyl)-4-thiazolyl]ethyl]-butanamide for 6 h. All the compounds dilutions were made in DMSO and the concentration of the vehicle (DMSO) was kept constant (0.1%) in each well. Cells were then treated with 300 ng/ml tunicamycin to cause ER stress and after 72 h of treatment, cells were observed under microscope and images were captured. Then MTT assay was performed to measure the cell viability. Briefly, MTT (0.5 mg/ml) was added to each well and further incubated for 1 h. Culture medium was removed and the reduced MTT (formazen) was dissolved in DMSO (100 μl per well) and measured at 570 nm. Cell growth in vehicle control was calculated as 100% and the effect of the compounds were calculated accordingly.

For data set [3], the system named is black guinea pigs. The data set can be described thus: Animal model of vitiligo, topical application to ears (Test 6). The settings on record: 1% w/w topical formulation, 4 weeks, versus placebo treated ear; FIG. 6. It counts as in vivo, guinea pig. As for the experimental part: Topical formulation (1% w/w N-[2-[2-(4-chlorophenyl)-4-thiazolyl]ethyl]-butanamide) was prepared. Similarly, a placebo formulation was also prepared which was exactly similar to the N-[2-[2-(4-chlorophenyl)-4-thiazolyl]ethyl]-butanamide formulation except the active compound. The animal model of vitiligo was developed in black guinea pigs and the placebo and N-[2-[2-(4-chlorophenyl)-4-thiazolyl]ethyl]-butanamide formulations were applied on to the left and right ears respectively.

Data set [4] relates to B16-F10 cells. Put plainly: Tyrosinase activity with cocktail of inflammatory cytokines (Test 4). The conditions noted are these: pre-treated 6 h, TNFα, IL1β, IFNγ 10 ng/ml each, 72 h; FIG. 4. It counts as cell-based. Here is the method: In FIG. 4—Cocktail of inflammatory cytokines—Inflammatory cytokines cause inflammation in the system and are implicated for the vitiligo pathology. The “cocktail of inflammatory cytokines” include tumour necrosis factor-alpha (TNFα), interleukin-1 beta (IL-1B) and interferon gamma (IFNγ) at a final concentration of 10 ng/ml each.
B16-F10 cells were seeded in 24-well plates (80000 cells per well) for 24 h. Cells were then treated with indicated concentrations of N-[2-[2-(4-chlorophenyl)-4-thiazolyl]ethyl]-butanamide. After 6 h of treatment with N-[2-[2-(4-chlorophenyl)-4-thiazolyl]ethyl]-butanamide, a cocktail of inflammatory cytokines (TNFα, IL1β, IFNγ—10 ng/ml each) was added to indicated wells. After 72 h of treatments, cells were washed with PBS and lysed in phosphate buffer (pH 6.8) containing 1 mM EDTA and 01% Triton X-100. Lysate was cleared by centrifugation (12000×g) for 10 min and clear lysate (20 μl) was used for tyrosinase assay. The final concentrations of tyrosinase assay mixture were as follows: phosphate buffer (50 mM, pH 6.8), L-DOPA (1 mM), MBTH (6 mM), DMF (2%). Tyrosinase activity led to the conversion of L-DOPA into dopachrome that binds to MBTH and forms a color complex which is read at 492 nm. Tyrosinase activity was normalized to total cellular proteins measured by Bradford's reagent and represented as % of vehicle control.

For data set [5], the system named is NHEM, A375 melanoma, B16-F10 melanoma and NIH-3T3 fibroblasts. The data set can be described thus: Cytotoxicity as LDH release (Test 5). It counts as cell-based. The settings on record: 24 hours treatment; FIG. 5. Here is the method: NHEM (normal human […] melanocytes), A375 melanoma, B16-F10 melanoma and NIH-3T3 fibroblasts were seeded in 96 well plates for 24 hours. Cells were then treated with VC (DMSO, 0.1%) or with indicated concentrations of N-[2-[2-(4-chlorophenyl)-4-thiazolyl]ethyl]-butanamide for 24 hours. After incubation period, cytotoxicity was measured as % of total LDH released in the culture medium.
For orientation: LDH leaks from cells whose membrane has failed.

In data set [6] the test system is ER (endoplasmic reticulum). The conditions noted are these: cited from earlier work.
In data set [7] the test system is cells that expressed a mutant form of rhodopsin. The conditions noted are these: mutant rhodopsin of autosomal dominant retinitis pigmentosa; protein misfolding and ER stress; cited from earlier work.
Data set [8] deals with obese-diabetic mouse. The settings on record: multiple obese-diabetic mouse models; cited from earlier work.
Data set [9] relates to B16-F10 cells. The data set can be described thus: Tyrosinase activity with tunicamycin treatment (Test 2). It counts as cell-based. The conditions noted are these: pre-treated 6 h, tunicamycin 300 ng/ml, 72 h; % of vehicle control; FIG. 2. As for the experimental part: B16-F10 cells were seeded in 24-well plates (20000 cells per well) for 24 h. Cells were then treated with indicated concentrations of N-[2-[2-(4-chlorophenyl)-4-thiazolyl]ethyl]-butanamide. After 6 h of treatment with N-[2-[2-(4-chlorophenyl)-4-thiazolyl]ethyl]-butanamide, tunicamycin (300 ng/ml) was added to the indicated wells. After 72 h of treatments, cells were washed with PBS and lysed in phosphate buffer (pH 6.8) containing 1 mM EDTA and 01% Triton X-100. Lysate was cleared by centrifugation (12000×g) for 10 min and clear lysate (20 μl) was used for tyrosinase assay. The final concentrations of tyrosinase assay mixture were as follows: phosphate buffer (50 mM, pH 6.8), L-DOPA (1 mM), MBTH (6 mM), DMF (2%). Tyrosinase activity was measured by measuring the colored complex formed at 492 nm. Tyrosinase activity was normalized to total cellular proteins measured by Bradford's reagent and represented as % of vehicle control.

On to `CCCC(=O)NCCc1csc(-c2ccc(Cl)cc2)n1` [N-[2-[2-(4-chlorophenyl)-4-thiazolyl]ethyl]-butanamide], for which the “melanin secretion (melanin levels)” value in [1] was “increases melanin levels and reverses the tunicamycin effect”. Moreover, the “cell viability (MTT)” value in data set [2] was “protects melanocytes from tunicamycin induced cell death in a dose dependent manner”. For the same compound, in [3], the ear pigmentation entry was “potency to cause repigmentation”. The “tyrosinase activity under inflammation” value in data set [4] is on record as “negates inflammation induced effect in melanocytes”. In data set [5], the “cytotoxicity (% of total LDH released)” value is listed as “no cytotoxicity”. Besides, in [6], the “ER protein folding output” value is given as “increasing ER protein folding output” and the chaperone expression entry is on record as “chronically inducing chaperone expression”. Moreover, the “prevention of cell death” value in data set [7] is given as “effective in preventing the death of cells”. In data set [8], the B-cell function result is on record as “improved”, the glucose tolerance entry is recorded as “improved” and the insulin sensitivity entry is reported as “improved”. The tyrosinase activity entry in data set [9] was “increases tyrosinase activity and reverses the tunicamycin effect”.

(Values after patent US12440478B2, “Process for preparing a potent thiazole compound, pharmaceutical formulation and uses thereof” (AHAMMUNE BIOSCIENCES PRIVATE LIMITED, priority 2018, dated 2025).)
